Experimental data: patent US20150209281A1, “LIPOSOMAL COMPOSITIONS OF EPOXYKETONE-BASED PROTEASOME INHIBITORS” (ONYX THERAPEUTICS, INC., priority 2012, published 2015)
Converted amounts (≈) assume the structure as drawn. Where two headings read alike, the source gives them in different places.

Experiment: Aqueous solubility of carfilzomib
Type: physicochemical

CC(C)C[C@H](NC(=O)[C@H](CCc1ccccc1)NC(=O)CN1CCOCC1)C(=O)N[C@@H](Cc1ccccc1)C(=O)N[C@@H](CC(C)C)C(=O)[C@@]1(C)CO1 [carfilzomib]
solubility (30 °C, simulated gastric fluid, thermodynamic from solid, 0.1M HCl aqueous solution, ~pH 1, read-out: Approximate carfilzomib solubility at pH 1): ~1800 µg/mL (≈ 2500 µM) | solubility (aqueous medium, read-out: aqueous solubility): < 1 µg/mL
